The text below walks through data of patent US20230145868A1, “UREA INHIBITORS OF MICRO-RNA” (Board of Regents, The University of Texas System, priority 2020, published 2023).

Test [1] concerns miR-10b. Kind of test: Luciferase reporter assay of miR-10b inhibition, MCF7 cells. It counts as cell-based. The note with it: Homo sapiens, MCF7, 48 h. An excerpt: (§1) To identify miR-10b inhibitors, a luciferase reporter system was designed with complementary oligonucleotides for miR-10b.This luciferase reporter would repress Renilla luciferase signal in the presence of a functional mature miR-10b. However, in the presence of a small molecule that can inhibit mature miR-10b expression or affect its downstream function, the luciferase expression is restored again.
(§2) The PsiCHECK™-2 luciferase reporter vector was acquired from Promega™, Complementary oligonucleotides for hsa-miR-10b were designed based on the mature miRNA sequence and obtained from Thermo Fisher Scientific. In the design of the microRNA target sequence, several base pairs were added to have two different restriction sites recognizable by the enzyme SgfI at one side, and PmeI on the other (present in the vector as well). In addition, the insert was designed with a restriction site for SacI enzyme in order to have an additional site to digest the vector when monitoring colonies for the presence/absence of the insert. The designed oligonucleotides were annealed as follows: Complementary strands were mixed at a 1:1 molar ratio in a micro centrifuge tube. The mixture was diluted to a final concentration of 1 pmol/μl with a buffer solution of 10 mM Tris, 1 mM EDTA, and 50 mM NaCl (pH 8.0). Mixes were incubated at 95° C. for 5 min, and then the heat was reduced gradually for 70 min, until reaching 4° C. The annealed oligonucleotides were digested along with the PsiCHECK™2 vector with SgfI and PmeI and ligated at the 3′-UTR (downstream) of the Renilla luciferase reporter gene in the PsiCHECK™-2vector. Insert sequences were further confirmed in two ways: enzymatic digestion and sequencing.
(§3) MCF7 cells were seeded 24 h prior to transfection in 96 well plates (2.0×10^4 cells/well). For testing the sensitivity of the assay, antagomiRs and pre-miRs against miR-10b were used at a final concentration of 100 nM. For testing small molecule miRNA inhibitors, the compounds of interest were added to a final concentration of 10 μM. The assay was done in MCF7 or MDA-MB-231 cells at approximately 60% confluence using Lipofectamine in Opti-Mem media with the final vector concentration of 250 ng/mL. All transfections were performed in triplicate for statistical analysis. The cells were incubated at 37° C. for 6 h, followed by replacement of the transfected media with fresh media. After 48 h incubation, the media was removed, and cells were lysed and assayed with a Dual Luciferase Assay Kit (Promega) using a Vi-Tech luminometer. The ratio of Renilla to firefly luciferase expression was calculated for each of the triplicates.
A general note: In a reporter assay the amount or activity of a reporter protein is the signal.

The test system of test [2] is miR-10b. The experiment in a line: Luciferase reporter assay of miR-10b inhibition, MDA-MB-231 cells. It counts as cell-based. The note with it: Homo sapiens, MDA-MB-231, 48 h.
Source text: as §1, §2, §3

In the next test the test system is mature miR-10b. Kind of test: RT-qPCR of mature miR-10b. It counts as cell-based, human. The following applies: AGS gastric cell line; normalized to U6; vs DMSO. The protocol: (§4) Potential small molecule miRNA inhibitors were tested in MCF7 cells, a metastatic cell line (MM231) and an HCC cell line (HepG2) through RT-qPCR. Cells were seeded in 12-well plates 24 h before treatments at a confluence of 50-60%. They were treated at a concentration of 10 μM linifanib (positive control) or DMSO (negative control), and RNA was collected after 24 and 48 h. MicroRNA expression was tested using TaqMan microRNA assay (Applied Biosystems). The cDNA was synthesized using TaqMan Reverse Transcription Reagents kit (Applied Biosystems) and employed for quantitative RT-qPCR analysis together with TaqMan probes and SsoFastSupermix (Bio-rad). Primers and probes were purchased for hsa-miR-10b, hsa-pri-miR-10b, U6, and U48 snRNA that was used as an internal control.
(§5) To detect the levels of the precursor sequences, cDNA was synthesized using the SuperScript III cDNA kit (Invitrogen). Diluted cDNA was used for RT-qPCR analysis using iQ SYBR Green Supermix (Bio-Rad) with primers designed by in-house. Experiments were performed in triplicate; treated samples were compared to the DMSO-treated controls and normalized to the internal control. Relative expression levels were calculated using the 2-ΔCt method.

The test system of a further test is pre-miR-10b. Kind of test: RT-qPCR of precursor miR-10b. In kind it is cell-based, human. The following applies: AGS gastric cell line; normalized to U6; vs DMSO. The protocol:
as §4, §5
For orientation: Quantitative PCR measures a nucleic acid by following its amplification.

Setting [3] is: Table 3, MCF7, 10 μM compound, vs negative control (DMSO), mean of triplicate, read-out: n-fold increase in luciferase expression, Mean.
Setting [4] is: Table 3, MCF7, 10 μM compound, vs negative control (DMSO), replicate #1, read-out: n-fold increase in luciferase expression, #1.
Where [5] appears, read: Table 3, MCF7, 10 μM compound, vs negative control (DMSO), replicate #2, read-out: n-fold increase in luciferase expression, #2.
Where [6] appears, read: Table 3, MCF7, 10 μM compound, vs negative control (DMSO), replicate #3, read-out: n-fold increase in luciferase expression, #3.
Where [7] appears, read: Table 6, MCF7, second biological replicant, 10 μM compound, mean of triplicate, read-out: n-fold increase in luciferase expression, Mean.
Where [8] appears, read: Table 6, MCF7, second biological replicant, 10 μM compound, replicate #1, read-out: n-fold increase in luciferase expression, #1.
Setting [9] is: Table 6, MCF7, second biological replicant, 10 μM compound, replicate #2, read-out: n-fold increase in luciferase expression, #2.
The mark [10] stands for this setting: Table 6, MCF7, second biological replicant, 10 μM compound, replicate #3, read-out: n-fold increase in luciferase expression, #3.
[11] abbreviates: Table 5, MDA-MB-231, 10 μM compound, vs negative control (DMSO), mean of triplicate, read-out: n-fold increase in luciferase expression, Mean.
Where [12] appears, read: Table 5, MDA-MB-231, 10 μM compound, vs negative control (DMSO), replicate #1, read-out: n-fold increase in luciferase expression, #1.
[13] abbreviates: Table 5, MDA-MB-231, 10 μM compound, vs negative control (DMSO), replicate #2, read-out: n-fold increase in luciferase expression, #2.
[14] abbreviates: Table 5, MDA-MB-231, 10 μM compound, vs negative control (DMSO), replicate #3, read-out: n-fold increase in luciferase expression, #3.
The mark [15] stands for this setting: Table 7, MDA-MB-231, second biological replicant, 10 μM compound, mean of triplicate, read-out: n-fold increase in luciferase expression, Mean.
[16] abbreviates: Table 7, MDA-MB-231, second biological replicant, 10 μM compound, replicate #1, read-out: n-fold increase in luciferase expression, #1.
The mark [17] stands for this setting: Table 7, MDA-MB-231, second biological replicant, 10 μM compound, replicate #2, read-out: n-fold increase in luciferase expression, #2.
The mark [18] stands for this setting: Table 7, MDA-MB-231, second biological replicant, 10 μM compound, replicate #3, read-out: n-fold increase in luciferase expression, #3.
The mark [19] stands for this setting: Table 4, MCF7, 10 μM compound, vs negative control (DMSO), mean of triplicate, read-out: n-fold increase in luciferase expression, Mean.
Where [20] appears, read: Table 4, MCF7, 10 μM compound, vs negative control (DMSO), replicate #1, read-out: n-fold increase in luciferase expression, #1.
[21] abbreviates: Table 4, MCF7, 10 μM compound, vs negative control (DMSO), replicate #2, read-out: n-fold increase in luciferase expression, #2.
The mark [22] stands for this setting: Table 4, MCF7, 10 μM compound, vs negative control (DMSO), replicate #3, read-out: n-fold increase in luciferase expression, #3.

`Cc1ccc(F)c(NC(=O)Nc2ccc(-c3cccc4[nH]ncc34)cc2)c1` [Example 3, 1-(4-(1H-indazol-4-yl)phenyl)-3-(2-fluoro-5-methylphenyl)urea]: the fold induction at 10 µM with miR-10b [1] (setting [3]) was 0.26; with miR-10b [1] (setting [4]), 0.238; in the test on miR-10b [1] (setting [5]), 0.246; with miR-10b [1] (setting [6]), 0.292; in the test with miR-10b [1] (setting [7]) it was 0.18; with miR-10b [1] (setting [8]), 0.257. Further, the fold induction at 10 µM in the test on miR-10b [1] (setting [9]) is 0.176; in the test on miR-10b [1] (setting [10]) it was 0.117; with miR-10b [2] (setting [11]), 0.46; in the test with miR-10b [2] (setting [12]), 0.423; in the test with miR-10b [2] (setting [13]) it was 0.643; in the test on miR-10b [2] (setting [14]), 0.312. Also, the fold induction at 10 µM in the test on miR-10b [2] (setting [15]) was 0.17; with miR-10b [2] (setting [16]) it was 0.193; in the test on miR-10b [2] (setting [17]) it was 0.149; with miR-10b [2] (setting [18]) it was 0.163.

For `Cc1ccc(F)c(NC(=O)Nc2ccc(-c3cnc(N)nc3)cc2)c1` [Example 5, 1-(4-(2-aminopyrimidin-5-yl)phenyl)-3-(2-fluoro-5-methylphenyl)urea], the fold induction at 10 µM in the test on miR-10b [1] (setting [3]) was 2.86; in the test on miR-10b [1] (setting [4]), 1.99; in the test on miR-10b [1] (setting [5]), 1.49; in the test with miR-10b [1] (setting [6]), 5.1; in the test with miR-10b [1] (setting [7]), 2.12; in the test with miR-10b [1] (setting [8]) it was 3.03. In addition, the fold induction at 10 µM in the test on miR-10b [1] (setting [9]) stood at 1.73; in the test with miR-10b [1] (setting [10]) it was 1.59; with miR-10b [2] (setting [11]) it was 1.04; with miR-10b [2] (setting [12]), 1.13; with miR-10b [2] (setting [13]) it was 1.01; with miR-10b [2] (setting [14]) it was 0.99. Moreover, the fold induction at 10 µM with miR-10b [2] (setting [15]) was determined as 1.3; in the test with miR-10b [2] (setting [16]), 0.26; in the test on miR-10b [2] (setting [17]) it was 1.57; in the test on miR-10b [2] (setting [18]) it was 2.06. Also, in the test with mature miR-10b, the “level of mature miR-10b” value is “reduce the level of mature miR-10b”. Also, the “expression of pre-miR-10b” value in the test on pre-miR-10b is “increased expression of pre-miR-10b”.

As to `Cc1ccc(F)c(NC(=O)Nc2ccc(-c3cccc4c3NC(=O)C4)cc2)c1` [Example 7, 1-(2-fluoro-5-methylphenyl)-3-(4-(2-oxoindolin-7-yl)phenyl)urea], the fold induction at 10 µM is 2.41 in the test with miR-10b [1] (setting [19]); 1.34 in the test on miR-10b [1] (setting [20]); 5.06 with miR-10b [1] (setting [21]); 0.822 with miR-10b [1] (setting [22]); 1.25 with miR-10b [1] (setting [7]); 1.86 in the test with miR-10b [1] (setting [8]). Besides, the fold induction at 10 µM with miR-10b [1] (setting [9]) was 0.957; with miR-10b [1] (setting [10]), 0.935; with miR-10b [2] (setting [11]) it was 1.05; in the test with miR-10b [2] (setting [12]) it was 1.01; in the test on miR-10b [2] (setting [13]) it was 1.09; in the test with miR-10b [2] (setting [14]), 1.05. The fold induction at 10 µM worked out at 1.19 with miR-10b [2] (setting [15]), 1.16 in the test on miR-10b [2] (setting [16]), 1.31 in the test on miR-10b [2] (setting [17]) and 1.11 in the test with miR-10b [2] (setting [18]).

On to `Cc1ccc(F)c(NC(=O)Nc2ccc(-c3ccccn3)cc2)c1` [Example 8, 1-(2-fluoro-5-methylphenyl)-3-(4-(pyridin-2-yl)phenyl)urea], for which the fold induction at 10 µM was determined as 3.92 with miR-10b [1] (setting [19]); 4.6 in the test with miR-10b [1] (setting [20]); 6.07 in the test on miR-10b [1] (setting [21]); 1.08 in the test on miR-10b [1] (setting [22]); 1.24 in the test with miR-10b [1] (setting [7]); 1.82 with miR-10b [1] (setting [8]). For the same molecule, the fold induction at 10 µM with miR-10b [1] (setting [9]) stood at 1.04; in the test on miR-10b [1] (setting [10]) it was 0.857; with miR-10b [2] (setting [11]), 0.78; in the test on miR-10b [2] (setting [12]), 0.566; in the test on miR-10b [2] (setting [13]), 0.991; in the test on miR-10b [2] (setting [14]), 0.793. In addition, the fold induction at 10 µM is 1.15 with miR-10b [2] (setting [15]), 1.39 with miR-10b [2] (setting [16]), 1 in the test with miR-10b [2] (setting [17]) and 1.05 in the test on miR-10b [2] (setting [18]).

Consider `Nc1n[nH]c2cccc(-c3ccc(NC(=O)Nc4ccncc4)cc3)c12` [Example 9, 1-(4-(3-amino-1H-indazol-4-yl)phenyl)-3-(pyridin-4-yl)urea], for which the fold induction at 10 µM turned out to be 2.11 in the test with miR-10b [1] (setting [19]); 0.94 in the test on miR-10b [1] (setting [20]); 4.2 in the test with miR-10b [1] (setting [21]); 1.2 in the test with miR-10b [1] (setting [22]); 1.29 in the test on miR-10b [1] (setting [7]); 2.17 in the test on miR-10b [1] (setting [8]). The fold induction at 10 µM in the test on miR-10b [1] (setting [9]) is 0.859; with miR-10b [1] (setting [10]), 0.84; in the test on miR-10b [2] (setting [11]), 1.41; in the test with miR-10b [2] (setting [12]) it was 1.14; in the test on miR-10b [2] (setting [13]), 2.05; in the test on miR-10b [2] (setting [14]), 1.05. The fold induction at 10 µM is 1.56 in the test with miR-10b [2] (setting [15]), 1.39 with miR-10b [2] (setting [16]), 1.61 in the test with miR-10b [2] (setting [17]) and 1.67 in the test on miR-10b [2] (setting [18]).
